Reference: article PMC11312998, “Molecular Pro-Apoptotic Activities of Flavanone Derivatives in Cyclodextrin Complexes: New Implications for Anticancer Therapy” (International Journal of Molecular Sciences, 2024)
≈ marks a conversion by molar mass, not a printed value. Like-named read-outs stand apart in the source and are kept apart here.

What was measured:
[1] = system: HCC38; assay: MTT cytotoxicity assay; type: cell-based; details: Homo sapiens, 24 h incubation, mean ± SEM
Protocol: (§1) Cell viability was determined using the metabolic microplate spectrophotometric assay with Methylthiazolyl diphenyltetrazolium bromide (MTT), i.e., 3-(4,5-Dimethyl-2-thiazolyl)-2,5-diphenyl-2H-tetrazolium bromide (Sigma-Aldrich; St. Louis, MO, USA). The anticancer activity of the investigated compounds was evaluated in vitro on the basis of their ability to inhibit the proliferation of various cancer cells. The appropriate number of cells for a given cell line (6–8 × 10^3 cells/mL) were seeded into sterile, colorless 96-well microplates. After 24 h of culture, specific wells of the microplate were treated with test compounds (10–200 µmol/L concentration) and incubated in a CO2 incubator for 24 h. The medium was then removed, the cell monolayer was washed twice with sterile PBS solution and fresh culture medium was added to the wells of the microplate.
(§2) After 48 h of cell culture, the MTT test was conducted. In each well of the microplate, 50 µL of tetrazolium salt solution (final concentration 0.05 mg/mL) was added. The microplate was then placed in a CO2 incubator for 3–4 h (depending on the cell line). Following incubation, 100 µL of DMSO (dimethyl sulfoxide, Sigma-Aldrich, St. Louis, MO, USA) was added to the microplate wells to dissolve the purple formazan crystals formed in the environment of living cells. The absorbance of the formazan solution was read at a wavelength of λ = 580 nm and a reference wavelength of λ = 720 nm after gentle mixing (Biotek Power Wave HT, Biotek Instruments, Winooski, VT, USA).
(§3) The percentage of live cells was calculated by comparing the absorbance value of the tested samples with that of the control (cells not treated with compounds). Control absorbance was arbitrarily considered to be 100%.
(§4) In order to determine the contribution of ROS to the cytotoxicity of the tested compounds, the cells were pre-incubated for 1 h with the antioxidant vitamin E (Trolox, Sigma-Aldrich; St. Louis, MO, USA). Cells were seeded into sterile, colorless 96-well microplates at a concentration of 6–8 × 10^3 cells/mL, depending on the cell line. After 24 h of culture, Trolox was added at a final concentration of 50 μM/well. After 1 h of incubation, the antioxidant was washed off, then appropriate concentrations of test compounds (10–200 µmol/L concentration) were added to fresh cell culture medium and incubated for 24 h. The MTT test was then performed under identical experimental conditions, as described in Section 3.1.2.

[2] = system: Hec-1-A; assay: MTT cytotoxicity assay; type: cell-based; details: Homo sapiens, 24 h incubation, mean ± SEM
Protocol: as §1, §2, §3, §4

[3] = system: MCF-7; assay: MTT cytotoxicity assay; type: cell-based; details: Homo sapiens, MCF7, 24 h incubation, mean ± SEM
Protocol: as §1, §2, §3, §4

[4] = system: MDA-MB-231; assay: MTT cytotoxicity assay; type: cell-based; details: Homo sapiens, 24 h incubation, mean ± SEM
Protocol: as §1, §2, §3, §4

[5] = system: Ishikawa; assay: MTT cytotoxicity assay; type: cell-based; details: Homo sapiens, Ishikawa, 24 h incubation, mean ± SEM
Protocol: as §1, §2
The percentage of live cells was calculated by comparing the absorbance value of the tested samples with that of the control (cells not treated with compounds). Control absorbance was arbitrarily considered to be 100%. […]

[6] = system: breast cancer cells (MCF-7, MDA-MB-231 and HCC38) and endometrial cancer cells (Ishikawa, Hec-1-A); assay: MTT cytotoxicity assay, summary over the cell lines; type: cell-based, human; details: for cytotoxic activity (in words): range of 10–200 µM, all cancer lines
Protocol: as §1, §2
The percentage of live cells was calculated by comparing the absorbance value of the tested samples with that of the control (cells not treated with compounds). Control absorbance was arbitrarily considered to be 100%. […] Moreover, cisplatin (Sigma-Aldrich, St. Louis, MO, USA) was used as a reference compound, and identical incubation conditions were used as described above.

[7] = system: cancer cells; assay: Reactive oxygen species generation (results not published); type: cell-based
[8] = Isothermal titration calorimetry (ITC) of inclusion complex formation; type: physicochemical; details: DMSO, 25 °C
Protocol: Measurements were carried out using a MicroCal VP-ITC100 microcalorimeter equipped with a 1400 μL measurement cell. All titrations were carried out under isothermal conditions at 25 degrees C in DMSO solution, which was used as a solvent. The mixing speed during the measurements was 351 rpm. The 0.2 mM solution of the ligand (3, 3a and 5) located in the measurement cell was titrated with the cyclodextrin solution located in the syringe. Each measurement consisted of 50 injections of cyclodextrin with a volume of 5 uL and a concentration of 5 mM. The interval between individual injections was 300 s. The effect of direct interaction of the ligand with CD was calculated by subtracting the thermal effects of diluting 5 mM cyclodextrin in a pure solvent. The dilution effect of the 0.2 mM ligand solution was negligible. The results obtained were processed in the MicroCall Origin 7 software. Using a single active site model (ITC Tutorial Guide), the stability constant K of the resulting complex, its stoichiometry n and thermodynamic parameters that describe the ongoing process were determined, viz., enthalpy (ΔH), Gibbs free energy (ΔG) and entropy (ΔS).

[9] = Water solubility by UV–Vis spectrophotometry (phase solubility with cyclodextrins); type: physicochemical; details: 25 °C, thermodynamic from solid, 298.15 K, without cyclodextrin, read-out: Solubility in H2O
Protocol: Spectrophotometric measurements were performed using a SPECORD 50 single-beam UV–Vis spectrophotometer (Analyst Jena, Thuringia, Germany). The calibration lines of the compounds tested were determined for the concentration range of 3.0 × 10^−6 M to 1 × 10^−4 M (Figure 21). The molar extinction coefficients for 3, 3a, and 5 were determined experimentally in an aqueous ethanol solution; the relevant maximum wavelengths are presented in Table 9. The influence of α-cyclodextrins, β-cyclodextrins and HP-β-cyclodextrins on the solubility of the tested ligands in water was evaluated in three measurement series. Briefly, excess ligand was introduced into closed Eppendorff tubes containing α-CD, β-CD or HP-β-CD solutions, at concentrations ranging from 1 to 90 mM for α-CD and HP-β-CD and from 1 to 15 mM for β-CD. The test tubes were stored for 10 days at a temperature of 298.15 K until equilibrium was achieved. After this time, the solutions were centrifuged using a Microcentrifuge MPW-55 at 13,000 rpm for five minutes. For testing, a clear solution was taken from above the sediment and diluted appropriately so that the spectrum was within the operating range of the spectrophotometer.

[10] = MTT cytotoxicity assay, model of normal cells; type: cell-based; details: human, HMEC-1 cells (model of normal cells), 24 h incubation, mean ± SEM, read-out: Cytotoxic effect of analogues incorporated in cyclodextrins and cyclodextrin, IC50
Protocol: as §1, §2, §3

[11] = system: RBCs; assay: Erythrocyte morphology, phase contrast microscopy; type: cell-based, human; details: all tested concentrations; 24 h, 37 °C
Protocol: The experiments on human blood were performed in accordance with Polish national guidelines, and the study protocols were approved by the Bioethics Committee of the Medical University of Lodz, Poland: approval no (RNN/104/20/KE). The blood samples were obtained from healthy donors at the Blood Donation Centre in Lodz. The procedure for […] for erythrotoxicity studies is given in a previous paper. The influence of the synthesized compounds, together with a reference compound on RBC membrane integrity, was performed by lysis assay, described elsewhere. Briefly, 2% RBC suspension in 0.9% NaCl was incubated at 37 °C for 24 h with the tested compounds at concentrations of 100 µmol/L, 50 µmol/L, 25 µmol/L, 10 µmol/L and 1 µmol/L. The samples were centrifuged at 3000 rpm for 10 min, and the absorbance of the supernatant was measured at 550 nm. The results are presented as a percentage of hemolysis where a sample containing 10 μL of 2.0% v/v Triton X-100 was regarded as a positive control contributing to 100% of hemolysis. A sample containing saline solution represented the spontaneous hemolysis of RBCs (control). The experiments were conducted using at least three different biological materials (n = 3). […] Additionally, erythrocyte morphology was evaluated using a phase contrast Opta-Tech inverted microscope at 400× magnification.

[12] = read-out: Cytotoxic effect, IC50
[13] = read-out: Cytotoxic effect of analogues incorporated in cyclodextrins and cyclodextrin, IC50

In the case of `Cc1ccc(/C=C2/C(=O)c3ccccc3OC2c2ccccc2)cc1` (stereo not drawn) [Compound 4], the IC50 [1, 12] is reported as 93.2 ± 2.8 µM, the IC50 [2, 12] is reported as 44.6 ± 4.5 µM and the IC50 [3, 12] is reported as 53.4 ± 4.1 µM. The IC50 [4, 12] was > 120 µM, the IC50 [5, 12] was 48.9 ± 6.1 µM and the “cytotoxic activity (in words)” value [6] was “very weak cytotoxic activity”. For the same molecule, the “changes in the level of reactive oxygen species generation (in words)” value (shortened to “changes in the level”) [7] was “no statistically significant changes”.

For `COc1cccc(C2CN=NC23C(=O)c2ccccc2OC3c2ccccc2)c1` (stereo not drawn) [Compound 3a], the IC50 [1, 12] was > 120 µM, the IC50 [2, 12] was 67.2 ± 2.5 µM and the IC50 [3, 12] was 84.2 ± 2.2 µM. The IC50 [4, 12] was > 120 µM, the IC50 [5, 12] was 68.5 ± 4.6 µM and the “cytotoxic activity (in words)” value [6] was “very weak cytotoxic activity”. The “changes in the level” value [7] was “no statistically significant changes”, the “K (formation constant)” value ([8]; HP-β-cyclodextrin) was 5.66 × 10^3 ± 390 and the “n (stoichiometry)” value ([8]; HP-β-cyclodextrin) was 0.98 ± 0.09. For the same molecule, the ΔG ([8]; HP-β-cyclodextrin) was −21,420.7 J mol^−1, the ΔH ([8]; HP-β-cyclodextrin) was -0.185 ± 0.0141 kcal/mol and the ΔS ([8]; HP-β-cyclodextrin) was 69.3 J mol^−1K^−1. For the same molecule, the “K (formation constant)” value ([8]; α-cyclodextrin) was 1.51 × 10^3 ± 130, the “n (stoichiometry)” value ([8]; α-cyclodextrin) was 0.85 ± 0.13 and the ΔG ([8]; α-cyclodextrin) was −18,145.5 J mol^−1. The ΔH ([8]; α-cyclodextrin) was -0.0669 ± 0.021 kcal/mol, the ΔS ([8]; α-cyclodextrin) was 59.9 J mol^−1K^−1 and the “K (formation constant)” value ([8]; β-cyclodextrin) was 2.49 × 10^3 ± 200. The “n (stoichiometry)” value ([8]; β-cyclodextrin) was 0.92 ± 0.11, the ΔG ([8]; β-cyclodextrin) was −19,385.4 J mol^−1 and the ΔH ([8]; β-cyclodextrin) was -0.202 ± 0.017 kcal/mol. For the same molecule, the ΔS ([8]; β-cyclodextrin) was 62.2 J mol^−1K^−1 and the solubility at 10 days [9] was 1.55 µM (≈ 0.596 µg/mL).

For `CCN(CC)c1ccc(/C=C2/C(=O)c3ccccc3OC2c2ccccc2)cc1` (stereo not drawn) [Compound 2], the IC50 [1, 12] was > 200 µM, the IC50 [2, 12] was > 200 µM and the IC50 [3, 12] was 122 ± 6.7 µM. For the same molecule, the IC50 [4, 12] was > 200 µM, the IC50 [5, 12] was > 200 µM and the “cytotoxic activity (in words)” value [6] was “very weak cytotoxic activity”. For the same molecule, the “changes in the level” value [7] was “no statistically significant changes”.

With `OC[C@H]1O[C@@H]2O[C@H]3[C@H](O)[C@@H](O)[C@@H](O[C@H]4[C@H](O)[C@@H](O)[C@@H](O[C@H]5[C@H](O)[C@@H](O)[C@@H](O[C@H]6[C@H](O)[C@@H](O)[C@@H](O[C@H]7[C@H](O)[C@@H](O)[C@@H](O[C@H]8[C@H](O)[C@@H](O)[C@@H](O[C@H]1[C@H](O)[C@H]2O)O[C@@H]8CO)O[C@@H]7CO)O[C@@H]6CO)O[C@@H]5CO)O[C@@H]4CO)O[C@@H]3CO` [β-CD, β-cyclodextrin, reference compound] the IC50 [1, 13] was > 120 µM, the IC50 [2, 13] was > 120 µM and the IC50 [3, 13] was > 120 µM. For the same molecule, the IC50 [4, 13] was > 120 µM, the IC50 [5, 13] was > 120 µM and the IC50 at 24 h [10] was > 120 µM. The “cytotoxic activity of pure cyclodextrin (in words)” value ([6]; HMEC-1 endothelial cells or any tested cancer cells, 10–120 µM) was “not found to demonstrate any cytotoxic activity” and the “RBC morphology (in words)” value [11] was “no pathological changes in RBCs or damaged cells were observed”.
